The values that follow come from US12472174B2, “Bupropion dosage forms with reduced food and alcohol dosing effects” (ANTECIP BIOVENTURES II LLC, priority 2022, dated 2025).

Structures can show the parent of a compound that is named as a salt.

For data set [1] the following is noted: powder; cited from earlier work.
The subject of data set [2] is patients with agitation associated with Alzheimer's disease. Briefly: Phase 2/3 randomized, double-blind, controlled clinical trial in agitation associated with Alzheimer's disease. It is filed as in vivo, human. On the procedure: A Phase 2/3 randomized, double-blind, controlled, multicenter, U.S. clinical trial was conducted to evaluate the efficacy and safety of DM/BU in patients with agitation associated with Alzheimer's disease. A total of 366 patients with a diagnosis of probable Alzheimer's disease and clinically meaningful agitation associated with their disease were randomized, initially in a 1:1:1 ratio, to receive DM/BU (dextromethorphan/bupropion, dose escalated from 30 mg/105 mg once daily in the first week, to 30 mg/105 mg twice daily in the second week, to 45 mg/105 mg twice daily thereafter), bupropion (dose escalated from 105 mg once daily in the first week to 105 mg twice daily thereafter), or matching placebo, for 5 weeks. An independent data monitoring committee performed an interim futility analysis and recommended no further randomization to the bupropion arm. Subsequently, patients were randomized in a 1:1 ratio to receive DM/BU or placebo. Total patients randomized were 159, 49, and 158 to the DM/BU, bupropion, and placebo arms, respectively. The mean Cohen-Mansfield Agitation Inventory (CMAI) total scores at baseline were 60.8, 66.1, and 59.3, respectively for the DM/BU, bupropion, and placebo groups. The minimum score on the CMAI is 29, corresponding to the total absence of symptoms, with higher scores corresponding to greater agitation. The primary endpoint of the study was the change from baseline in the CMAI total score at Week 5. P-values were calculated based on least square mean estimates.
Inclusion criteria included male or female […], diagnosis of probable Alzheimer's disease, according to the 2011 NIA-AA criteria, diagnosis of agitation, according to the IPA provisional definition of agitation, MMSE score between 10 and 24, an NPI-AA score ≥4, and community dwelling. Exclusion criterial included dementia of non-Alzheimer's type and current use of a selective serotonin reuptake inhibitor and/or a serotonin and norepinephrine inhibitor (SSRI/SNRI).

In the case of `CC(NC(C)(C)C)C(=O)c1cccc(Cl)c1.Cl` (racemic) [Bupropion hydrochloride, (±)-1-(3-chlorophenyl)-2-[(1,1-dimethylethyl)amino]-1-propanone hydrochloride], the solubility in water entry in data set [1] is reported as “highly soluble in water”.

For the molecule `CC(NC(C)(C)C)C(=O)c1cccc(Cl)c1` (stereo not shown) [Bupropion, bupropion], the “mean reduction from baseline in CMAI total score” value in data set [2] (Week 5, primary endpoint, placebo 11.5, p=0.010) is recorded as 10.0 points. Also, in data set [2] (both, human, in vivo, 5 weeks), the Diarrhea is listed as 3 (6.1%) number of subjects (% of subjects), the “Discontinuation due to AEs” value is given as 1 (2.0%) number of subjects (% of subjects), the Dizziness was 5 (10.2%) number of subjects (% of subjects) and the Falls is reported as 7 (14.3%) number of subjects (% of subjects). Also, in data set [2] (both, human, in vivo, 5 weeks), the Fatigue is reported as 5 (10.2%) number of subjects (% of subjects), the Headache is on record as 3 (6.1%) number of subjects (% of subjects), the Insomnia was 3 (6.1%) number of subjects (% of subjects) and the “Serious AEs” value is 4 (8.2%) number of subjects (% of subjects). In data set [2] (both, human, in vivo, 5 weeks), the Somnolence is 2 (4.1%) number of subjects (% of subjects); the “Subjects with any TEAE” value is listed as 30 (61.2%) number of subjects (% of subjects); the “diarrhea, adverse event rate” value amounted to 6.1%; the “dizziness, adverse event rate” value is recorded as 10.2%. Also, in data set [2] (both, human, in vivo, 5 weeks), the “rate of discontinuation due to adverse events” value is listed as 2.0%; the “serious adverse events, patients” value amounted to 8.2%; the “somnolence, adverse event rate” value was determined as 4.1%. Further, the deaths entry in data set [2] (one in the placebo arm) is on record as “one”.

For the molecule `COc1ccc2c(c1)[C@]13CCCC[C@@H]1[C@H](C2)N(C)CC3` [Dextromethorphan hydrobromide, morphinan, 3-methoxy-17-methyl-, (9α, 13α, 14α), hydrobromide monohydrate], in data set [1], the solubility in water result is “sparingly soluble in water”.
